This is an account of results in patent publication US10898481B2 (priority 2018, dated 2021).

Test [1] addresses hADORA1/CHO (hA1 expressing) cells (Homo sapiens (Human), UniProt P30542). Put plainly: cell-based. Conditions: FLIPR inhibition, 10 μM adenosine, read-out: cAMP & FLIPR IC50 (nM) hA1.
A further test has as its target hA2a/CHO (Homo sapiens (Human), UniProt P29274). Description: cAMP inhibition assay in hA2a/CHO cells, 10 μM adenosine.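 Further: compounds added to cells 30 min ahead of adenosine, then a further 30 min at 37 °C with adenosine before cAMP detection.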 Type of test: cell-based. The note with it: read-out: cAMP & FLIPR IC50 (nM) hA2a.

SMILES strings stand for the structures. A value given as a limit tells only on which side of the number the result lay.

As usually defined, the IC50 is the concentration that gives 50% inhibition.

Chain of hA2a/CHO (P29274 whole entry): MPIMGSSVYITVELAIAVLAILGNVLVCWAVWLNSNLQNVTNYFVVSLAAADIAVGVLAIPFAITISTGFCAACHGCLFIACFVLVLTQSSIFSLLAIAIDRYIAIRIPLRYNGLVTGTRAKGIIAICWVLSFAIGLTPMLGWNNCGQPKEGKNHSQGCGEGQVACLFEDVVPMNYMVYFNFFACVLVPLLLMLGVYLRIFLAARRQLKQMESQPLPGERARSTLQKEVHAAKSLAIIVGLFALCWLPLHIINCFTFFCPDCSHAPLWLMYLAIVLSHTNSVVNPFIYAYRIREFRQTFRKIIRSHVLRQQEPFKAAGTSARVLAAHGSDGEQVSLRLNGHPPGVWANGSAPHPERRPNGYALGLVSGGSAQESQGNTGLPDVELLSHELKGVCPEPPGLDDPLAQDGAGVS
Chain of hADORA1/CHO (hA1 expressing) cells (P30542 whole entry): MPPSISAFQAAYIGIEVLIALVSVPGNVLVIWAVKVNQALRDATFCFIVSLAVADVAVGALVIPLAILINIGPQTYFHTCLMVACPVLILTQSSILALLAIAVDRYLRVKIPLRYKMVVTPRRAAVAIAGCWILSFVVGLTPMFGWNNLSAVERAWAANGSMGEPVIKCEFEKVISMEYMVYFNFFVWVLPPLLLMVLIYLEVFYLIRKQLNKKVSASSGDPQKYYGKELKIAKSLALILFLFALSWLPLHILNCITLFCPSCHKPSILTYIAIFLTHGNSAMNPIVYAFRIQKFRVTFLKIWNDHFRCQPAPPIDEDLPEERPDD
Protocol for hA2a/CHO: hA2a/CHO, hA2b/CHO, hA3/CHO and mA2a/CHO (Genscript) were plated at 5×10^3 cells/well into 384-well polystyrene plates at the day of experiment. Compounds were pre-incubated with cells for 30 min at 37° C., 5% CO2. Then 10 μM adenosine was added to the cells and incubated for 30 min at 37° C., 5% CO2. Detection reagent (CISBIO) was added and the plates were incubated for 60 min at room temperature. The signal was captured by Envision.

For the molecule `Cc1cnc2ccc(-c3nc(C(=O)NCC(C4CC4)N(C)C)c(N)nc3-c3ncco3)cn12` (single isomer, unassigned; isomer 1) [Example 253, 3-amino-N-(2-cyclopropyl-2-(dimethylamino)ethyl)-6-(3-methylimidazo[1,2-a]pyridin-6-yl)-5-(oxazol-2-yl) pyrazine-2-carboxamide (isomer 1)], the results for the IC50 (in test [1]; at hA2a/CHO) were 8170 nM and 12 nM, respectively.
For `Cc1cnc2ccc(-c3nc(C(=O)N[C@H]4C[C@H](N(C)C)C4)c(N)nc3-c3ncco3)cn12` [Example 271-2, Trans-3-amino-N-(3-(dimethylamino)cyclobutyl)-6-(3-methylimidazo[1,2-a]pyridin-6-yl)-5-(oxazol-2-yl)pyrazine-2-carboxamide], the values for the IC50 (in test [1]; on hA2a/CHO) were 865 nM and 23 nM, respectively.
Taken in the same sequence, the figures for `Cc1cnc2ccc(-c3nc(C(=O)NCC4CC(C)(C)O4)c(N)nc3-c3ncco3)cn12` (single isomer, unassigned; isomer 1) [Example 260, 3-amino-N-((4,4-dimethyloxetan-2-yl)methyl)-6-(3-methylimidazo[1,2-a]pyridin-6-yl)-5-(oxazol-2-yl)pyrazine-2-carboxamide (isomer 1)] were 30 nM and 5.9 nM.
Take `Cc1cnc2ccc(-c3nc(C(=O)NCC4CCCN(C)C4=O)c(N)nc3-c3ncco3)cn12` (single isomer, unassigned; isomer 1) [Example 263, 3-amino-N-((1-methyl-2-oxopiperidin-3-yl)methyl)-6-(3-methylimidazo[1,2-a]pyridin-6-yl)-5-(oxazol-2-yl) pyrazine-2-carboxamide (isomer 1)]: the IC50 in test [1] is 103 nM; at hA2a/CHO, 0.4 nM.
On the same counts, the results for `Cc1cnc2ccc(-c3nc(C(=O)NCc4c(F)cccc4F)c(N)nc3N3CCOCC3)cn12` [Example 238, 3-amino-N-(2,6-difluorobenzyl)-6-(3-methylimidazo[1,2-a]pyridin-6-yl)-5-morpholinopyrazine-2-carboxamide] are 401 nM and 0.5 nM.
As for `Cc1cnc2ccc(-c3nc(C(=O)NCc4cccc(N5CCOCC5)n4)c(N)nc3-c3ncco3)cn12` [Example 276, 3-amino-6-[3-methylimidazo[1,2-a]pyridin-6-yl]-N-[[6-(morpholin-4-yl)pyridin-2-yl]methyl]-5-(1,3-oxazol-2-yl)pyrazine-2-carboxamide], the IC50 in test [1] turned out to be 3070 nM; at hA2a/CHO it was 3.1 nM.
Take `Cc1cnc2ccc(-c3nc(C(=O)NCCN(C)C4CCOC4)c(N)nc3-c3ncco3)cn12` (racemic) [Cmpd. 233, rac-3-amino-N-(2-(methyl(tetrahydrofuran-3-yl)amino)ethyl)-6-(3-methylimidazo[1,2-a]pyridin-6-yl)-5-(oxazol-2-yl)pyrazine-2-carboxamide]: the IC50 was found to be 1910 nM in test [1] and 38 nM at hA2a/CHO.
On the same counts, the results for `Cc1cnc2ccc(-c3nc(C(=O)NCc4cccc(N5CC(CN(C)C)C5)n4)c(N)nc3-c3ncco3)cn12` [Cmpd. 261, 3-amino-N-((6-(3-((dimethylamino)methyl)azetidin-1-yl)pyridin-2-yl)methyl)-6-(3-methylimidazo[1,2-a]pyridin-6-yl)-5-(oxazol-2-yl)pyrazine-2-carboxamide] are 158 nM and 0.4 nM.
Taken in the same sequence, the figures for `Cc1cnc2ccc(-c3nc(C(=O)NCc4cccc(C5CCN(C)CC5)n4)c(N)nc3-c3ncco3)cn12` [Example 176, 3-amino-6-(3-methylimidazo[1,2-a]pyridin-6-yl)-N-((6-(1-methylpiperidin-4-yl)pyridin-2-yl)methyl)-5-(oxazol-2-yl) pyrazine-2-carboxamide] were 599 nM and 11 nM.
On the same counts, the results for `Cc1cnc2ccc(-c3nc(C(=O)NCC4CCCN(C)C4=O)c(N)nc3-c3ncco3)cn12` (single isomer, unassigned; isomer 2) [Example 254, 3-amino-N-((1-methyl-2-oxopiperidin-3-yl)methyl)-6-(3-methylimidazo[1,2-a]pyridin-6-yl)-5-(oxazol-2-yl) pyrazine-2-carboxamide (isomer 2)] are 99 nM and 0.7 nM.
Turning to `Cc1cnc2ccc(-c3nc(C(=O)NCCn4ccccc4=O)c(N)nc3-c3ncco3)cn12` [Example 237, 3-amino-6-(3-methylimidazo[1,2-a]pyridin-6-yl)-5-(oxazol-2-yl)-N-(2-(2-oxopyridin-1(2H)-yl)ethyl)pyrazine-2-carboxamide], the figures for the IC50 (in test [1]; on hA2a/CHO) were 71 nM and 5.1 nM, respectively.
Turning to `Cc1cnc2ccc(-c3nc(C(=O)NCc4ncccc4F)c(N)nc3N3CCOCC3)cn12` [Cmpd. 223, 3-amino-N-[(3-fluoropyridin-2-yl)methyl]-6-[3-methylimidazo[1,2-a]pyridin-6-yl]-5-(morpholin-4-yl)pyrazine-2-carboxamide], the IC50 in test [1] is more than 10000 nM.
Turning to `Cc1cnc2ccc(-c3nc(C(=O)NCc4cccc(N5C[C@H]6CC[C@@H](C5)N6C)n4)c(N)nc3-c3ncco3)cn12` [Example 173, 3-amino-N-((6-((1R,5S)-8-methyl-3,8-diazabicyclo[3.2.1]octan-3-yl)pyridin-2-yl)methyl)-6-(3-methylimidazo[1,2-a]pyridin-6-yl)-5-(oxazol-2-yl)pyrazine-2-carboxamide], the half-maximal inhibitory concentration (IC50) in test [1] amounted to 6500 nM; at hA2a/CHO, 5.1 nM.
On the same counts, the results for `Cc1cnc2ccc(-c3nc(CNC(=O)[C@H]4CCCN4C)c(N)nc3-c3cccc(F)c3)cn12` [Example 278, (R)—N-((3-amino-5-(3-fluorophenyl)-6-(3-methylimidazo[1,2-a]pyridin-6-yl)pyrazin-2-yl)methyl)-1-methylpyrrolidine-2-carboxamide] are 12 nM and 0.4 nM.
For `NCc1cnc2ccc(-c3nc(C(=O)NCc4ncccc4F)c(N)nc3-c3ncco3)cn12` [Cmpd. 198, 3-amino-6-(3-(aminomethyl)imidazo[1,2-a]pyridin-6-yl)-N-((3-fluoropyridin-2-yl)methyl)-5-(oxazol-2-yl)pyrazine-2-carboxamide], the IC50 in test [1] was more than 10000 nM.
With `CNCCOc1cccnc1CNC(=O)c1nc(-c2ccc3ncc(C)n3c2)c(-c2ncco2)nc1N` [Example 301, 3-amino-N-([3-[2-(methylamino)ethoxy]pyridin-2-yl]methyl)-6-[3-methylimidazo[1,2-a]pyridin-6-yl]-5-(1,3-oxazol-2-yl)pyrazine-2-carboxamide], on hA2a/CHO, the IC50 is 3 nM.
On the same count and under the same terms, with `Cc1cnc2ccc(-c3nc(C(=O)N[C@H](C)Cn4nccn4)c(N)nc3-c3ncco3)cn12` [Example 298, 3-amino-6-[3-methylimidazo[1,2-a]pyridin-6-yl]-5-(1,3-oxazol-2-yl)-N-[(2R)-1-(2H-1,2,3-triazol-2-yl)propan-2-yl]pyrazine-2-carboxamide] the figure was 47 nM; with `COC1CCCC(NC(=O)c2nc(-c3ccc4ncc(C)n4c3)c(-c3ncco3)nc2N)C1` (single isomer, unassigned; isomer 2) [Example 293, 3-amino-N-(3-methoxycyclohexyl)-6-(3-methylimidazo[1,2-a]pyridin-6-yl)-5-(oxazol-2-yl)pyrazine-2-carboxamide (isomer 2)], 0.4 nM.
The same measure, in the same setting: as for `Cc1cnc2ccc(-c3nc(C(=O)NCC4CCOC4)c(N)nc3-c3ccccn3)cn12` (single isomer, unassigned) [Example 305, 3-amino-6-[3-methylimidazo[1,2-a]pyridin-6-yl]-N-[[oxolan-3-yl]methyl]-5-(pyridin-2-yl)pyrazine-2-carboxamide], the figure is 12 nM; as for `Cc1cnc2ccc(-c3nc(C(=O)NCc4cccc(N5CCC(N(C)C)CC5)n4)c(N)nc3-c3ncco3)cn12` [Example 302, 3-amino-N-((6-(4-(dimethylamino)piperidin-1-yl)pyridin-2-yl)methyl)-6-(3-methylimidazo[1,2-a]pyridin-6-yl)-5-(oxazol-2-yl)pyrazine-2-carboxamide], 2.4 nM; as for `Cc1cnc2ccc(-c3nc(C(=O)NCC4CCOC4)c(N)nc3-c3ccccn3)cn12` (single isomer, unassigned) [Example 304, 3-amino-6-[3-methylimidazo[1,2-a]pyridin-6-yl]-N-[[oxolan-3-yl]methyl]-5-(pyridin-2-yl)pyrazine-2-carboxamide], 8.2 nM.
On the same count and under the same terms, as for `Cc1cnc2ccc(-c3nc(CNC(=O)[C@H]4CCCN4C)c(N)nc3-c3ccc(F)c(F)c3)cn12` [Cmpd. 257, (2R)—N-[[3-amino-5-(3,4-difluorophenyl)-6-[3-methylimidazo[1,2-a]pyridin-6-yl]pyrazin-2-yl]methyl]-1-methylpyrrolidine-2-carboxamide], the figure is 1.5 nM; as for `Cc1cnc2ccc(-c3nc(C(=O)N[C@@H](C)Cn4ccnn4)c(N)nc3-c3ncco3)cn12` [Example 296, (S)-N-(1-(lH-1,2,3-triazol-1-yl)propan-2-yl)-3-amino-6-(3-methylimidazo[1,2-a]pyridin-6-yl)-5-(oxazol-2-yl) pyrazine-2-carboxamide], 0.9 nM; as for `Cc1cnc2ccc(-c3nc(C(=O)NCc4cccc(N5CCN(C)[C@H](C)C5)n4)c(N)nc3-c3ncco3)cn12` [Example 285, 3-amino-N-([6-[(3R)-3,4-dimethylpiperazin-1-yl]pyridin-2-yl]methyl)-6-[3-methylimidazo[1,2-a]pyridin-6-yl]-5-(1,3-oxazol-2-yl)pyrazine-2-carboxamide], 4.5 nM.
On to `CNC1CN(c2cccc(CNC(=O)c3nc(-c4ccc5ncc(C)n5c4)c(-c4ncco4)nc3N)n2)C1` [Example 303, 3-amino-N-((6-(3-(methylamino)azetidin-1-yl)pyridin-2-yl)methyl)-6-(3-methylimidazo[1,2-a]pyridin-6-yl)-5-(oxazol-2-yl)pyrazine-2-carboxamide], for which, at hA2a/CHO, the IC50 worked out at 0.4 nM.
